# In ChEMBL document CHEMBL3414551, “Selective inhibitors of protein methyltransferases” (J Med Chem, 2015):
# Columns and labels:
# [1] = target: T1, N-lysine methyltransferase KMT5A (Homo sapiens, UniProt Q9NQR1); assay: Inhibition of N-terminal His6-tagged human SETD8 (191 to 352) assessed as incorporation of [3H]-methyl group from [3H-Me]-SAM to biotinylated H4K20 peptide substrate preincubated for 10 mins followed by substrate addition by liquid scintillation counting analysis
# T1 sequence (Q9NQR1 whole entry): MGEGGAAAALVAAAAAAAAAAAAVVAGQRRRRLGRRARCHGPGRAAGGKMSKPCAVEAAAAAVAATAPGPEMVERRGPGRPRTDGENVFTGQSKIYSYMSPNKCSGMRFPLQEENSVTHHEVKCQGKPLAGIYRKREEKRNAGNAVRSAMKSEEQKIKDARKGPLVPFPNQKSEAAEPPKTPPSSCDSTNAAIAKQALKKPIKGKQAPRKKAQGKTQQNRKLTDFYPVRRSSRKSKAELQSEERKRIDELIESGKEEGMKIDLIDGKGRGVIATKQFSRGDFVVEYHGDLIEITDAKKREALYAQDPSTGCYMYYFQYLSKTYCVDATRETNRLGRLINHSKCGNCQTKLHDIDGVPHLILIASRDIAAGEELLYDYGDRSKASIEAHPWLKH
# [2] = species: Homo sapiens; assay: Selectivity ratio of IC50 for human SMYD2 to IC50 for N-terminal His6-tagged human SETD8 (191 to 352)
# [3] = species: Homo sapiens; assay: Selectivity ratio of IC50 for N-terminal His6-tagged human PRMT3 (211 to 531) to IC50 for N-terminal His6-tagged human SETD8 (191 to 352)
# [4] = species: Homo sapiens; assay: Selectivity ratio of IC50 for N-terminal His6-tagged human PRMT1 (10 to 352) to IC50 for N-terminal His6-tagged human SETD8 (191 to 352)
# [5] = target: Histone-lysine N-methyltransferase, H3 lysine-79 specific (Homo sapiens, UniProt Q8TEK3); assay: Inhibition of DOT1L in human MCF10A cells assessed as reduction of H3K79 level; format: cell-based, MCF-10A
# [6] = cells; details: Homo sapiens, HL-60
# [7] = system: Jurkat; assay: cells; details: Homo sapiens
# [8] = system: REH; assay: cells; details: Homo sapiens
# [9] = system: Kasumi 1; assay: cells; details: Homo sapiens
# [10] = cells; details: Homo sapiens, U-937
# [11] = system: 697; assay: cells; details: Homo sapiens
# [12] = target: N-lysine methyltransferase SMYD2 (Homo sapiens, UniProt Q9NRG4); assay: Binding affinity to recombinant human full-length SMYD2 (1 to 433) by ITC analysis
# [13] = target: T2, Histone-lysine N-methyltransferase EZH2 (Homo sapiens, UniProt Q15910); assay: Inhibition of N-terminal FLAG tagged full-length human EZH2 expressed in baculovirus infected Sf9 cells using H3K27 as substrate in presence of SAM
# [14] = target: T2, Histone-lysine N-methyltransferase EZH2; assay: Inhibition of N-terminal FLAG tagged full-length human EZH2 expressed in baculovirus infected Sf9 cells using H3K27 as substrate after 120 mins by mass spectrophotometric analysis
# [15] = target: Histone-lysine N-methyltransferase EZH2 (Homo sapiens, UniProt Q15910, Y641F); assay: Inhibition of N-terminal FLAG tagged human EZH2 Y641F mutant expressed in baculovirus infected Sf9 cells using H3K27 as substrate after 120 mins by mass spectrophotometric analysis
# [16] = target: T3, Protein arginine N-methyltransferase 1 (Homo sapiens, UniProt Q99873); assay: Inhibition of recombinant human GST-tagged PRMT1 using GST-Npl3 as substrate
# [17] = target: T4, Histone-arginine methyltransferase CARM1 (Homo sapiens, UniProt Q86X55); assay: Inhibition of recombinant human GST-tagged CARM1
# T4 sequence (Q86X55 whole entry): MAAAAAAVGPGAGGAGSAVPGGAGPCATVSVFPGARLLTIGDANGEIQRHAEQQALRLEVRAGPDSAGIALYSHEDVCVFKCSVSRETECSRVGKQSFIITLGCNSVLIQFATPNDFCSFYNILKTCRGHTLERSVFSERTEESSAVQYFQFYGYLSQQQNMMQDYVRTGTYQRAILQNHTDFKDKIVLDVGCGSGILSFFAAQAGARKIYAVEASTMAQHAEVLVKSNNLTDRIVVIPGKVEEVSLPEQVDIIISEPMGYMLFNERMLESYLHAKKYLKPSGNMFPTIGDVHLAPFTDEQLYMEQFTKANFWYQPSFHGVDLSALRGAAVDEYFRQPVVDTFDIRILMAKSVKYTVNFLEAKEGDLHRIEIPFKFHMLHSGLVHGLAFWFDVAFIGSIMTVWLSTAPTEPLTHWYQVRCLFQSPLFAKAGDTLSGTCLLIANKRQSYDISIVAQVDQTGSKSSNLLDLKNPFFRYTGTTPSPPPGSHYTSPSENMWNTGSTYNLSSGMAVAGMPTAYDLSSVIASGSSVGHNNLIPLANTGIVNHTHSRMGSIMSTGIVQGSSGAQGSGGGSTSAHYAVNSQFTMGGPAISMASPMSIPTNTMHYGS
# [18] = target: T3, Protein arginine N-methyltransferase 1; assay: Inhibition of recombinant GST-tagged PRMT1 (unknown origin) using GST-P3 as substrate after 90 mins by scintillation counting analysis in presence of [3H]AdoMet
# [19] = target: T2, Histone-lysine N-methyltransferase EZH2; assay: Inhibition of EZH2 (unknown origin) using biotinylated-histone H3 (1 to 24) as substrate after 1 hr by scintillation proximity assay in presence of [3H]-SAM
# [20] = system: Mus musculus; assay: Cmax in Swiss albino mouse at 50 mg/kg, po; format: ADME, organism-based; design: dose 50 mg/kg, route oral; details: in vivo
# [21] = target: T5, Histone-lysine N-methyltransferase EHMT1 (Homo sapiens, UniProt Q9H9B1); assay: Inhibition of recombinant human GLP (951 to 1235) using Histone H3 peptide (1 to 15) as substrate preincubated on ice for 10 mins followed by 5 mins incubation at 30 degC measured 5 mins post substrate addition by mass spectrophotometric analysis
# T5 sequence (Q9H9B1 whole entry): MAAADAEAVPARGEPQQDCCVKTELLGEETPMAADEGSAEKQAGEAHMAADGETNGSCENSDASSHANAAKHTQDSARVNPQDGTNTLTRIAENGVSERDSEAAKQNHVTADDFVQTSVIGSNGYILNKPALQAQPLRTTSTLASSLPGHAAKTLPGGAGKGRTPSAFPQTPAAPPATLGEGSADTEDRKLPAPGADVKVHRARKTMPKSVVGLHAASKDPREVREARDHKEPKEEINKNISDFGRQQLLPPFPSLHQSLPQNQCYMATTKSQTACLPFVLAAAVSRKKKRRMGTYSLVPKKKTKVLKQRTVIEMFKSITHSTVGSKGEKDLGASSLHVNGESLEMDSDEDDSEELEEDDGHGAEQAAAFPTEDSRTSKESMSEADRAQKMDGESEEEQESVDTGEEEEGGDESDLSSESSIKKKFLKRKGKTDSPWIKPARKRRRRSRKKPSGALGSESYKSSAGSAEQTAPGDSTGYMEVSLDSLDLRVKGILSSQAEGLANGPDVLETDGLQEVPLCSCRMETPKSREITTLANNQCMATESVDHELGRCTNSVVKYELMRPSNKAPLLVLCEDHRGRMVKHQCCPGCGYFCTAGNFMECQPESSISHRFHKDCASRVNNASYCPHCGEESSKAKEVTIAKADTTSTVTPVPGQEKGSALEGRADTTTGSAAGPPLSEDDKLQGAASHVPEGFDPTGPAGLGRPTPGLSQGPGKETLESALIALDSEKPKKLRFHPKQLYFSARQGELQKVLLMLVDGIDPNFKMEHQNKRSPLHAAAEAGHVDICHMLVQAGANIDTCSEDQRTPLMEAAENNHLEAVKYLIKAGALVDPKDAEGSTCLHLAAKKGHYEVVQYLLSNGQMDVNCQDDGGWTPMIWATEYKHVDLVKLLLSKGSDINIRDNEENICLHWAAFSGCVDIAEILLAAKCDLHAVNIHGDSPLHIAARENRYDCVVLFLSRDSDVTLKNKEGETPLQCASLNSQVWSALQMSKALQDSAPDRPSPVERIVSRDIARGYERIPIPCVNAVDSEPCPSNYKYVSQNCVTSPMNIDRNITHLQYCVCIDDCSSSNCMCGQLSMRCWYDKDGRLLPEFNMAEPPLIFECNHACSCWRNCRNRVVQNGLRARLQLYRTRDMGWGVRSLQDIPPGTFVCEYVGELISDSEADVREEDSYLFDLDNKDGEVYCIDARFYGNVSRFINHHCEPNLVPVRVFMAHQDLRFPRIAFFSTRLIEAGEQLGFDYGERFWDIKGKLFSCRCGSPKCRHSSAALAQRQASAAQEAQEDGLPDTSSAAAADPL
# [22] = target: T2, Histone-lysine N-methyltransferase EZH2; assay: Inhibition of human EZH2 using SAM and histone H3 (16 to 30) as substrate preincubated for 30 mins followed by substrate addition measured after 90 mins by flash plate assay
# [23] = target: T6, Histone-lysine N-methyltransferase EHMT2 (Homo sapiens, UniProt Q96KQ7); assay: Inhibition of G9a (unknown origin) using SAM/biotinylated H3 as substrate preincubated for 1 hr followed by substrate addition measured after 2 hrs by ELISA
# T6 sequence (Q96KQ7 whole entry): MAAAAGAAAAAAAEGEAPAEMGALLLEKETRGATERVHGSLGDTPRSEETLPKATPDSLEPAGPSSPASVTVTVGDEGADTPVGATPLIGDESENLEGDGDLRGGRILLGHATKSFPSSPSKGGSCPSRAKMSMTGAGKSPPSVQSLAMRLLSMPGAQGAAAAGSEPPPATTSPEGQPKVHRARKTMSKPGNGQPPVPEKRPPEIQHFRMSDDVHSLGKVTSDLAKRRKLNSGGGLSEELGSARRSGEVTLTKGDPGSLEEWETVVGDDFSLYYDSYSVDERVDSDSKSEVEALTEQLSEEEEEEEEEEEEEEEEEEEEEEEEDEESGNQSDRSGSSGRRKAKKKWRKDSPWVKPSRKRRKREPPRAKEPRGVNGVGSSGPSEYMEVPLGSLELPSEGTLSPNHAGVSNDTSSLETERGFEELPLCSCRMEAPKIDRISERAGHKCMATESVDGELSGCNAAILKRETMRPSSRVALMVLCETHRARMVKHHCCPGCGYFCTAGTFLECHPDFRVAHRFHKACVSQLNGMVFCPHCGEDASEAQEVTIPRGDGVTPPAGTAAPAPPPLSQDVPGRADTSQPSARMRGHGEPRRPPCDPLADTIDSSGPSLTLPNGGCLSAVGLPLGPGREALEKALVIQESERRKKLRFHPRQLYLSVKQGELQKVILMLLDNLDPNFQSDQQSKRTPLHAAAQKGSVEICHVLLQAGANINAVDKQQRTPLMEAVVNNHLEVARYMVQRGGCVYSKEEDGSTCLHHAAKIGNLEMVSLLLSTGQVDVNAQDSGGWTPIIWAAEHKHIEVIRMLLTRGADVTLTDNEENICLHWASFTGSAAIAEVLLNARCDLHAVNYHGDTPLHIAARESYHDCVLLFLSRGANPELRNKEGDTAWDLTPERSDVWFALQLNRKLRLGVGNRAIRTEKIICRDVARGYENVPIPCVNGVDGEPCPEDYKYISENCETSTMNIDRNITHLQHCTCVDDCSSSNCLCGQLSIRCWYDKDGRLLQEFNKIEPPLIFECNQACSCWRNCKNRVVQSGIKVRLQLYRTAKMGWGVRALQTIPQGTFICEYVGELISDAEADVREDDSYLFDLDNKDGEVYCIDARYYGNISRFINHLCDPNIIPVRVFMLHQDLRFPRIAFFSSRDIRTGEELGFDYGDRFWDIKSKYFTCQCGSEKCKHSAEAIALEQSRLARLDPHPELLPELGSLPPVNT
# [24] = target: T7, Histone-arginine methyltransferase CARM1 (Homo sapiens) (UniProt Q86X55); assay: Inhibition of CARM1 in human HeLa cells assessed as reduction of H3R17 methylation at 5 uM after 24 hrs by Western blot analysis relative to control; format: cell-based
# T7 sequence (whole entry): T4 sequence (Q86X55 whole entry)
# T2 sequence (Q15910 whole entry): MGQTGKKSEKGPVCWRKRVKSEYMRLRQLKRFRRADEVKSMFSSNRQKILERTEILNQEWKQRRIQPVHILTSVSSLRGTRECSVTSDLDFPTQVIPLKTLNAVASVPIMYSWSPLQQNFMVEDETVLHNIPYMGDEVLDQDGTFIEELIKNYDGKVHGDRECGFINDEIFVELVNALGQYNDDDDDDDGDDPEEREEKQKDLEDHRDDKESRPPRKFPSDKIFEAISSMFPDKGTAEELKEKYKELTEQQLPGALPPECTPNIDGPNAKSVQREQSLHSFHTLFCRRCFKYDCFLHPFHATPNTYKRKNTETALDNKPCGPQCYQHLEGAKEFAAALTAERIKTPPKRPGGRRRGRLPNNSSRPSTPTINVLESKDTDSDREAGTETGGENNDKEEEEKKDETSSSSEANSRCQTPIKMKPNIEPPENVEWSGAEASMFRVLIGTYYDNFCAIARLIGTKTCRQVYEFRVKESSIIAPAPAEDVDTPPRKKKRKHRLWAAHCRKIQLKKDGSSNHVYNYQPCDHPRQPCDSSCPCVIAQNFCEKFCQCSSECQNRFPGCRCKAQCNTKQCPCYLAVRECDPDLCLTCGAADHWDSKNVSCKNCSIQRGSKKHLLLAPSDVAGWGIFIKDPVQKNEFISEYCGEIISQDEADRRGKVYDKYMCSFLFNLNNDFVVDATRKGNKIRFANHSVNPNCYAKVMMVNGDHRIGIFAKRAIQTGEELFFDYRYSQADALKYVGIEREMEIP
# T3 sequence (Q99873 whole entry): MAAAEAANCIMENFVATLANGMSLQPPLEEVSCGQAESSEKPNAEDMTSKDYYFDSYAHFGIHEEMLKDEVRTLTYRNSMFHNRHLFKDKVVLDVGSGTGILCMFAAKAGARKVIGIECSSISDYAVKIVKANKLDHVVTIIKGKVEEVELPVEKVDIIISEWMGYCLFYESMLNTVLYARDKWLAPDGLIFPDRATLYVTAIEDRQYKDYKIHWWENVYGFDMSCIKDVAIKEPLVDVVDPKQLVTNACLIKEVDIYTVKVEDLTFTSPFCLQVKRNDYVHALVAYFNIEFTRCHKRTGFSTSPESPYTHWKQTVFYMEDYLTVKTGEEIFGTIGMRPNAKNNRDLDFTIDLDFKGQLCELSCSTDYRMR
# Histone-lysine N-methyltransferase, H3 lysine-79 specific, sequence (Q8TEK3 whole entry): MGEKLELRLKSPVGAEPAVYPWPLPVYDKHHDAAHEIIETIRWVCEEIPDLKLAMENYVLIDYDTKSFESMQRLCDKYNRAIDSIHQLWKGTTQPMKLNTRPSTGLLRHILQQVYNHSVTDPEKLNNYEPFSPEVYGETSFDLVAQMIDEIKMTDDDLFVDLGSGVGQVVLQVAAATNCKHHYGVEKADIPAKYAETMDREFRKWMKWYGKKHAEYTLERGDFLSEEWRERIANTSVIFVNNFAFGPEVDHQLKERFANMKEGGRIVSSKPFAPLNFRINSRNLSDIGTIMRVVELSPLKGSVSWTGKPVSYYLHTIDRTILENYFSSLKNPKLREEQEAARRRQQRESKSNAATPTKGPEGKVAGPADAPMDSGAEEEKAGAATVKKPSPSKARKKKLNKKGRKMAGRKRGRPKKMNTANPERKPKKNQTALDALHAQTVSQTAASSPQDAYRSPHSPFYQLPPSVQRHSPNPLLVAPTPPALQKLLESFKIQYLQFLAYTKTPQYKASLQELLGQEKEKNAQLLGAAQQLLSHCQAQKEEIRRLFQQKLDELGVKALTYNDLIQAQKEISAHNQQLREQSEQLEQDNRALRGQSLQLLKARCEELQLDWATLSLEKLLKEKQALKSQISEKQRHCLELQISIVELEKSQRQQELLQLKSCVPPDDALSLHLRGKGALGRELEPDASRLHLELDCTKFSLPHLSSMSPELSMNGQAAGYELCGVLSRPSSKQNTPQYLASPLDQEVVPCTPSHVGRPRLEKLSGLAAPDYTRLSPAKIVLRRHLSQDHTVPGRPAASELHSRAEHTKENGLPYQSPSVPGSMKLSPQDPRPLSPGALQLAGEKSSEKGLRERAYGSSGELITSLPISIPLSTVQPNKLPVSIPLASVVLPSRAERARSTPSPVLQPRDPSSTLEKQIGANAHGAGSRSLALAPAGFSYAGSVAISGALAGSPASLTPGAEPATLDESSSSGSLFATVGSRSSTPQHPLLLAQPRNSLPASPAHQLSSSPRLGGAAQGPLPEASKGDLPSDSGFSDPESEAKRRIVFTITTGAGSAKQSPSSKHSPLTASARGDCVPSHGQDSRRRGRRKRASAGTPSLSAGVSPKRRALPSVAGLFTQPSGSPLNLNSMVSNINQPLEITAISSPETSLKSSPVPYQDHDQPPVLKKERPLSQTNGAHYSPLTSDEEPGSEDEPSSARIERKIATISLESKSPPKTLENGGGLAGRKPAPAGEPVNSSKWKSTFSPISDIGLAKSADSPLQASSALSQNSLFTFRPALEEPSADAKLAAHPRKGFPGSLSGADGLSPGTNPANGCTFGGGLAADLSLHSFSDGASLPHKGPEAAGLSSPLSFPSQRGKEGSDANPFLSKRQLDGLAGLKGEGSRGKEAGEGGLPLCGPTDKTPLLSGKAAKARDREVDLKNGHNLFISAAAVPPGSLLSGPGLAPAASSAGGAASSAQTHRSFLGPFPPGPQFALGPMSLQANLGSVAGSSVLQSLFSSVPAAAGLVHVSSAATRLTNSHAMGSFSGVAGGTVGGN
# Histone-lysine N-methyltransferase EZH2 (Homo sapiens, UniProt Q15910, Y641F), sequence (Q15910 whole entry Y641F): as the sequence (Q15910 whole entry) above, with Y641F counted along it
# N-lysine methyltransferase SMYD2, sequence (Q9NRG4 whole entry): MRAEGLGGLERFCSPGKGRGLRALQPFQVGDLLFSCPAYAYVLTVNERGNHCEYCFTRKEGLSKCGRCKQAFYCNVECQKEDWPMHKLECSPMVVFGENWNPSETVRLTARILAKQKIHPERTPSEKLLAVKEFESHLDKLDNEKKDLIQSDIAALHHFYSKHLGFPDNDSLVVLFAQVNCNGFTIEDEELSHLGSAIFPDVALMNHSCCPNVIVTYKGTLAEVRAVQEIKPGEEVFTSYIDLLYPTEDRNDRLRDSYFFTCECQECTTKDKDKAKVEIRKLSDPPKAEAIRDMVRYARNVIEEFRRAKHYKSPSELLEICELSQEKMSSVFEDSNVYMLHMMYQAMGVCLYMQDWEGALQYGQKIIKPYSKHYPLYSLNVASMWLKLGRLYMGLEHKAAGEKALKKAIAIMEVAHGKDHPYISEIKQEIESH
structure (smiles),measurement,setting,value
Cc1ccc(/N=C2\CC(=O)c3sc(C)nc3C2=O)cc1,IC50,[1],500 nM
O=C1C(Cl)=C(NCCN2CCOCC2)C(=O)c2ncccc21,Ratio IC50,[2],2.5
same,Ratio IC50,[3],> 6
same,Ratio IC50,[4],> 6
CC(C)N(CCCNC(=O)Nc1ccc(C(C)(C)C)cc1)C[C@H]1O[C@@H](n2cc(Br)c3c(N)ncnc32)[C@H](O)[C@@H]1O,IC50,[5],8.8 nM
CC(C)N(CCCNC(=O)Nc1ccc(C(C)(C)C)cc1)C[C@H]1O[C@@H](n2ccc3c(N)ncnc32)[C@H](O)[C@@H]1O,IC50,[6],> 10000 nM
same,IC50,[7],> 10000 nM
same,IC50,[8],> 10000 nM
same,IC50,[9],> 10000 nM
same,IC50,[10],> 10000 nM
same,IC50,[11],> 10000 nM
O=C1COc2c(CCNCCN(C(=O)CCNCCc3ccc(Cl)c(Cl)c3)C3CCCCC3)ccc(O)c2N1,Kd,[12],500 nM
CCC(CC)n1ccc2c(C(=O)NCc3c(C)cc(C)[nH]c3=O)cc(C#N)cc21,Ki,[13],13 nM
same,IC50,[14],15 nM
same,IC50,[15],13 nM
COc1ccc(/N=N/c2c(S(=O)(=O)O)cc3cc(Nc4nc(Cl)nc(Cl)n4)ccc3c2O)cc1,IC50,[16],4200 nM
same,IC50,[17],2600 nM
NCCCN(CC[C@H](N)C(=O)O)C[C@H]1O[C@@H](n2cnc3c(N)ncnc32)[C@H](O)[C@@H]1O,IC50,[18],3900 nM
CCCc1cc(C)[nH]c(=O)c1CNC(=O)c1cc(-c2ccc(N3CCN(C(C)C)CC3)nc2)cc2c1cnn2C(C)C,IC50,[19],< 10 nM
same,Cmax,[20],4.7 µM
COc1cc2c(NC3CCN(CCCCCN)CC3)nc(NCCCN(C)C)nc2cc1OCCCCCN,IC50,[21],100 nM
Cc1cc(C)c(CNC(=O)c2cc(-c3ccc4c(c3)OCCO4)nc3c2cnn3C(C)C)c(=O)[nH]1,IC50,[22],620 nM
CCCc1cc(C)[nH]c(=O)c1CNC(=O)c1cc(-c2ccc(N3CCN(CCCCc4cn(CCN5C(=O)\C(=C/C=C/C=C6/N(CCC(=O)OCOC(C)=O)c7ccc(C(=O)OCOC(C)=O)cc7C6(C)C)C(=O)N(CC)C5=O)nn4)CC3)nc2)cc2c1cnn2C(C)C,IC50,[19],21 nM
CN1C(=O)[C@@H]2C[C@@]3([C@@]45C[C@H]6C(=O)N(C)[C@@H](CO)C(=O)N6[C@@H]4Nc4ccccc45)c4ccccc4N[C@H]3N2C(=O)[C@@H]1CO,IC50,[23],> 50000 nM
O=c1oc2c(O)c(O)cc3c(=O)oc4c(O)c(O)cc1c4c23,inhibition,[24],> 50%
